In the NIST ThermoML archive (doi:10.1016/j.tca.2013.03.025):
“And” between values parts separate entries of the source, which are not always exact repeats. Equal values may be shown once. Numbers after ± are expanded uncertainties.

Experiments:
[1] = refractive index (Na D-line) (dimensionless); settings: 101.33 kPa, Liquid, Standard Abbe refractometry
[2] = 101 kPa, Liquid; for viscosity: Concentric cylinders viscometry; for mass density: Vibrating tube method
[3] = xn = mol fraction of the nth substance listed; settings: 101 kPa, Liquid, x2 = 0; for viscosity: Concentric cylinders viscometry; for mass density: Vibrating tube method
[4] = refractive index (Na D-line) (dimensionless); xn = mol fraction of the nth substance listed; settings: 101 kPa, Liquid, Standard Abbe refractometry, x2 = 0

OCCCO [propan-1,3-diol]
Settings	mass density, [2] [kg/m3]	refractive index, [1]	viscosity, [2] [mPa·s]
288.15 K	1055.96 ± 0.27	1.44072 ± 0.00037	66.71 ± 0.68
293.15 K	1052.86 ± 0.27	1.43932 ± 0.00037	52.02 ± 0.49
298.15 K	1049.75 ± 0.27	1.43793 ± 0.00037	41.11 ± 0.41
303.15 K	1046.63 ± 0.27	1.43653 ± 0.00037	32.89 ± 0.33
308.15 K	1043.5 ± 0.26	1.43512 ± 0.00037	26.61 ± 0.26
313.15 K	1040.35 ± 0.26	1.43374 ± 0.00037	21.76 ± 0.22
318.15 K	1037.17 ± 0.26	1.43232 ± 0.00037	17.97 ± 0.18
323.15 K	1033.98 ± 0.26	1.43087 ± 0.00037	14.97 ± 0.15

CCCO [propan-1-ol] + CCCCOC(=O)C(C)O
Settings	mass density, [3] [kg/m3]	refractive index, [4]	viscosity, [3] [mPa·s]
288.15 K	807.752 ± 0.14	1.38751 ± 0.00033	2.514 ± 0.024
293.15 K	803.767 ± 0.14	1.38543 ± 0.00033	2.208 ± 0.021
298.15 K	799.755 ± 0.14	1.3834 ± 0.00033	1.95 ± 0.019
303.15 K	795.717 ± 0.14	1.38137 ± 0.00033	1.727 ± 0.017
308.15 K	791.638 ± 0.14	1.37918 ± 0.00033	1.542 ± 0.015
313.15 K	787.521 ± 0.14	1.37702 ± 0.00033	1.378 ± 0.014
318.15 K	783.357 ± 0.15	1.37482 ± 0.00033	1.236 ± 0.013
323.15 K	779.137 ± 0.15	1.37262 ± 0.00033	1.124 ± 0.012

CC(O)CO (stereo not drawn) [1,2-propanediol]
Settings	mass density, [2] [kg/m3]	refractive index, [1]	viscosity, [2] [mPa·s]
288.15 K	1039.87 ± 0.1	1.43437 ± 0.00033	82.54 ± 0.87
293.15 K	1036.25 ± 0.099	1.4327 ± 0.00033	59.62 ± 0.52
298.15 K	1032.56 ± 0.097	1.43102 ± 0.00033	44.03 ± 0.39
303.15 K	1028.88 ± 0.095	1.42934 ± 0.00033	33.16 ± 0.3
308.15 K	1025.14 ± 0.093	1.42764 ± 0.00033	25.45 ± 0.23
313.15 K	1021.35 ± 0.092	1.42591 ± 0.00033	19.85 ± 0.18
318.15 K	1017.52 ± 0.09	1.4242 ± 0.00033	15.73 ± 0.14
323.15 K	1013.66 ± 0.088	1.42246 ± 0.00033	12.64 ± 0.11

CCCO [propan-1-ol]
Settings	mass density, [2] [kg/m3]	refractive index, [1]	viscosity, [2] [mPa·s]
288.15 K	807.752 ± 0.14	1.38751 ± 0.00033	2.514 ± 0.024
293.15 K	803.767 ± 0.14	1.38543 ± 0.00033	2.208 ± 0.021
298.15 K	799.755 ± 0.14	1.3834 ± 0.00033	1.95 ± 0.019
303.15 K	795.717 ± 0.14	1.38137 ± 0.00033	1.727 ± 0.017
308.15 K	791.638 ± 0.14	1.37918 ± 0.00033	1.542 ± 0.015
313.15 K	787.521 ± 0.14	1.37702 ± 0.00033	1.378 ± 0.014
318.15 K	783.357 ± 0.15	1.37482 ± 0.00033	1.236 ± 0.013
323.15 K	779.137 ± 0.15	1.37262 ± 0.00033	1.124 ± 0.012

CC(O)CO (stereo not drawn) [1,2-propanediol] + CCCCOC(=O)C(C)O
Settings	mass density, [3] [kg/m3]	refractive index, [4]	viscosity, [3] [mPa·s]
288.15 K	1039.87 ± 0.1	1.43437 ± 0.00033	82.54 ± 0.87
293.15 K	1036.25 ± 0.099	1.4327 ± 0.00033	59.62 ± 0.52
298.15 K	1032.56 ± 0.097	1.43102 ± 0.00033	44.03 ± 0.39
303.15 K	1028.88 ± 0.095	1.42934 ± 0.00033	33.16 ± 0.3
308.15 K	1025.14 ± 0.093	1.42764 ± 0.00033	25.45 ± 0.23
313.15 K	1021.35 ± 0.092	1.42591 ± 0.00033	19.85 ± 0.18
318.15 K	1017.52 ± 0.09	1.4242 ± 0.00033	15.73 ± 0.14
323.15 K	1013.66 ± 0.088	1.42246 ± 0.00033	12.64 ± 0.11

CCCCOC(=O)C(C)O (stereo not drawn) [butyl 2-hydroxypropanoate]
Settings	mass density, [2] [kg/m3]	refractive index, [1]	viscosity, [2]
288.15 K	987.269 ± 1.8	1.42379 ± 0.00068	4.628 ± 0.081 mPa·s
293.15 K	982.366 ± 1.8	1.42152 ± 0.00068	3.88 ± 0.068 mPa·s
298.15 K	977.448 ± 1.8	1.41925 ± 0.00068	3.307 ± 0.058 mPa·s
303.15 K	972.515 ± 1.8	1.41697 ± 0.00068	2.85 ± 0.05 mPa·s and 2.86 ± 0.05 mPa·s
308.15 K	967.567 ± 1.8	1.41469 ± 0.00068 and 1.4147 ± 0.00068	2.481 ± 0.043 mPa·s
313.15 K	962.603 ± 1.8	1.4124 ± 0.00068 and 1.41241 ± 0.00068	2.181 ± 0.038 mPa·s
318.15 K	957.624 ± 1.7	1.41006 ± 0.00068 and 1.41005 ± 0.00068	1.935 ± 0.034 mPa·s
323.15 K	952.631 ± 1.7	1.40778 ± 0.00068	1.728 ± 0.031 mPa·s

OCCCO [propan-1,3-diol] + CCCCOC(=O)C(C)O
Settings	mass density, [3] [kg/m3]	refractive index, [4]	viscosity, [3] [mPa·s]
288.15 K	1055.96 ± 0.27	1.44072 ± 0.00037	66.71 ± 0.68
293.15 K	1052.86 ± 0.27	1.43932 ± 0.00037	52.02 ± 0.49
298.15 K	1049.75 ± 0.27	1.43793 ± 0.00037	41.11 ± 0.41
303.15 K	1046.63 ± 0.27	1.43653 ± 0.00037	32.89 ± 0.33
308.15 K	1043.5 ± 0.26	1.43512 ± 0.00037	26.61 ± 0.26
313.15 K	1040.35 ± 0.26	1.43374 ± 0.00037	21.76 ± 0.22
318.15 K	1037.17 ± 0.26	1.43232 ± 0.00037	17.97 ± 0.18
323.15 K	1033.98 ± 0.26	1.43087 ± 0.00037	14.97 ± 0.15
